According to the METLIN SMRT retention time set (Domingo-Almenara et al. 2019):

Assay: gradient 5% acetonitrile 3 min, to 50% in 2 min, to 85% in 15 min, held 3 min, 100 µL/min
Conditions: column: Zorbax Extend-C18 2.1 x 50 mm; eluents: water / acetonitrile, 0.1% formic acid
Method in brief: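 Retention time was recorded from adduct peaks, which were picked computationally and each inspected manually. Pure standards ran in mixtures of ~100 molecules on HPLC coupled to a quadrupole time-of-flight mass spectrometer, in positive and negative ionization mode, through a Zorbax Extend-C18 column (2.1 × 50 mm, 1.8 μm) at 100 μL/min. Eluents were water and acetonitrile, each with 0.1% formic acid.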

SMILES	RP-LC retention time
COc1ccc(Nc2c(-c3ccc(N4CCOCC4)cc3)nc3ncccn23)cc1	654 s
Cc1ccc(NC(=O)Cn2c(C)nc3onc(C)c3c2=O)cc1F	735 s
Cc1ccc(CCNC(=O)c2cc3n(n2)CC(C)(C(=O)NC2CCCC2)N(C)C3=O)cc1 (configuration not stated)	809 s
COc1ccc(Cn2nc3c(S(=O)(=O)N4CCCCCC4)cccn3c2=O)cc1F	941 s
CCNc1cc(N2CCCC(CCC(=O)N3CCc4ccccc4C3)C2)ncn1 (configuration not stated)	694 s
CCNC(=O)N1CC(Oc2cccc(-c3nc(-c4ccccc4)no3)c2)C1	939 s
O=C(CCc1cn(Cc2ccccc2Cl)c2ccccc12)N1CCN(c2ccccn2)CC1	796 s
CC(C)(CO)NCc1ccc(-c2ccccc2F)o1	602 s
COCCNC(=O)N1CCCC(COC)C1 (configuration not stated)	578 s
CCNC(=O)C1CCN(C(=O)Nc2ccc(NC(=O)Nc3ccccc3)cc2)CC1	658 s
CCOC(=O)COc1cc(-c2ccc(C)cc2)nc2ccc(NC(=O)c3ccco3)cc12	778 s
COc1ccc(-c2cc3nn(CC(=O)Nc4ccc(F)cc4)c(=O)n3c(C)n2)cc1	914 s
CCOc1ccc2nc(NC(=O)C3CCCN(c4ncnc5c4nc4n5CCCCC4)C3)sc2c1 (configuration not stated)	1000 s
CC(=O)Cc1nsc(NC(=O)c2ccc(-c3cccc(Cl)c3)o2)n1	866 s
CCC(CC)C(=O)N1CCC2(CC1)NCc1ccccc1-n1ccnc12	580 s
COc1ccc(-c2cn3ccn(-c4ccc(F)c(Cl)c4)c(=O)c3n2)cc1OC	804 s
Cc1cc2c(cc1S(=O)(=O)N1CCCC1C(=O)N1CCCCC1)OC(C)C(=O)N2 (configuration not stated)	710 s
CCCNc1cc(N2CCCC(CCC(=O)N3CCN(c4ncccn4)CC3)C2)ncn1 (configuration not stated)	637 s
CN(CC1CCOCC1)C(=O)c1cc(F)cc(F)c1	725 s
Cc1ccc(C)c(-c2csc(NC(=O)COc3ccccc3)n2)c1	1150 s
CCCN(C(=O)c1ccc(Br)cc1)C1(C(=O)NCc2ccccc2)CCN(C(C)=O)CC1	626 s

SMILES	RP-LC retention time
CCSc1nnc(NC(=O)CSc2nccn2-c2ccc(OC)cc2OC)s1	682 s
O=C1CC[C@@H](C(=O)N2CSC[C@H]2C(=O)O)N1	562 s
CCOc1ccc(CNC(=O)C2CCN(Cc3cn(C)c4ccc(Cl)cc34)CC2)cc1OC	717 s
O=C(Cn1ncc2c(c1=O)N(C1CC1)C(=O)CS2)NCc1ccc2c(c1)OCO2	682 s
CN(C)CCNC(=O)c1ccc(CS(=O)Cc2ccccc2Cl)o1 (configuration not stated)	597 s
Cc1cc(N2CCN(C(=O)Nc3ccc(F)c(Cl)c3)CC2)nc(N2CCCC2)n1	701 s
O=C(C1CC(=O)N(c2ccc(F)cc2)C1)N1CC(c2nc(-c3ccccn3)no2)C1 (configuration not stated)	650 s
CCCCN1C(=O)C(C)(C(=O)Nc2cc(Cl)ccc2OC)Oc2cccnc21 (configuration not stated)	1230 s
COc1ccc(C2CC(=O)N(c3cccc(F)c3)C(=O)C2)cc1OC	839 s
COc1ccc(N2CC(C(=O)NCC(=O)N3CCCc4ccccc43)CC2=O)cc1 (configuration not stated)	724 s
Cc1noc(C2(NC(=O)c3cccc(F)c3)CCCCC2)n1	860 s
O=C1CC(c2ccc(C(=O)O)cc2)c2scc(-c3cccc(F)c3)c2N1 (configuration not stated)	823 s
C=CCNC(=O)c1ccc(-n2nc(C)cc2C)nc1	739 s
Cc1cccc(Nc2nc(C(=O)NCCC3=CCCCC3)nc3ccccc23)c1	995 s
CC(=O)c1ccc(NC(=O)CC2COc3ccccc3NC2=O)cc1 (configuration not stated)	677 s
CCOc1ccc(N2CC(c3nc(-c4cccnc4)no3)CC2=O)cc1 (configuration not stated)	759 s
Cc1nn(C)cc1C(=O)Nc1nc2ccccc2[nH]1	537 s
CCc1nn2c(CNS(=O)(=O)c3cc(F)cc(F)c3)c(-c3ccccc3)nc2s1	963 s
O=C(NC1CC1)C1CCCN(c2ncnc3c2oc2ccccc23)C1 (configuration not stated)	632 s
CC1=NS(=O)(=O)N(C)C=C1C(=O)OCc1cccc(Cl)c1	968 s
CCn1c(N2CCCC(C(=O)NCc3cccnc3)C2)cc(=O)n(C)c1=O (configuration not stated)	575 s

SMILES	RP-LC retention time
NS(=O)(=O)c1ccc(NS(=O)(=O)c2cc(-c3noc(C4CCCC4)n3)cs2)cc1	882 s
Cn1nc(-c2nc(C3CC3)no2)c2c1CCN(C(=O)c1c(F)cccc1Cl)C2	837 s
O=c1n(Cc2cccc(C(F)(F)F)c2)nc2c(S(=O)(=O)N3CCCC3)cccn12	885 s
CN1CCCn2nc(C3CCN(C(=O)Nc4cccc(C#N)c4)CC3)cc2C1=O	656 s
COc1ccc(C2c3[nH]c4ccccc4c3CCN2C(=O)c2ccncc2)cc1 (configuration not stated)	877 s
Cc1cc(NC(=O)c2ccccc2C(F)(F)F)n(-c2nc(-c3cccs3)cs2)n1	1250 s
CCn1cc(C)c(C(=O)O)c1CC(=O)Nc1ccc(Cl)cn1	835 s
Cc1nn(CC(=O)N2CCCC2)c(=O)c2c(-n3cccc3)n(-c3cccc(F)c3)nc12	876 s
CCCCC(=O)N1CCN(c2nc(C)cc(NCC)n2)CC1	618 s
Cc1ccc(NC(=O)CSc2nc(=O)n(CCN(C)C)c3c2CCC3)cc1	636 s
CCCc1ccc(S(=O)(=O)N(C)CC2CCOCC2)cc1	1020 s
O=C(Nc1nnc(-c2ccco2)o1)c1c[nH]c2ccccc12	656 s
Cc1ccc(F)c(-n2nnc(C(=O)O)c2C)c1	689 s
O=C(NCC1CN(CC2CC2)CC12CCCCC2)Nc1cc(F)ccc1F (configuration not stated)	718 s
Nc1nc(OCc2ccccc2)c2[nH]cnc2n1	654 s
COc1ccccc1CNC(=O)C1c2ccccc2C(=O)N2CCc3cc(OC)c(OC)cc3C12 (configuration not stated)	735 s
Cc1oc(C(C)C)nc1C(=O)NC(C)c1ccccn1 (configuration not stated)	610 s
COC(=O)C1=CN(c2ccc(Br)cc2)c2ccccc2S1(=O)=O	908 s
CCNc1nc(C)cc(N2CCN(S(=O)(=O)c3cccc(Cl)c3)CC2)n1	725 s
CCOc1ccc(NC(=O)c2cnc(-c3ccc(OC)cc3)nc2-c2ccncc2)cc1	875 s

Next, values leading:

RP-LC retention time	SMILES
736 s	COc1ccc(Nc2c(-c3nc(C)no3)cnc3nc(C)ccc23)cc1Cl
1000 s	CC1Cc2ccccc2N1C(=O)Cc1cc(-c2ccc(F)cc2)on1 (configuration not stated)
804 s	CCCCCCNC(=O)C1CCN(C(=O)C(C)(C)C)CC1
991 s	COC(=O)c1cccc(C(=O)Nc2ccc(C)c(Cl)c2)n1
1040 s	Cn1ccc2cc(S(=O)(=O)N3CCCC(C(=O)NCCC4=CCCCC4)C3)ccc21 (configuration not stated)
720 s	Cc1ccc2oc(-c3nnc(C(=O)NCCN4CCCCCC4)o3)c(C)c2c1
659 s	COc1ccc(C(=O)N2CCC(n3c(-c4ccoc4)nc4cccnc43)C2)cc1 (configuration not stated)
701 s	O=C(NC1CCCC1)N1CCC(c2noc(-c3cccnc3)n2)C1 (configuration not stated)
993 s	COc1cccc(Cc2nc(-c3cn(-c4cccc(F)c4)nn3)no2)c1
1290 s	COc1cc(NC(=O)C2CCCN(c3nc4ccccc4nc3OC)C2)c(OC)cc1Cl (configuration not stated)
589 s	CC(C)NC(=O)Cn1c(-c2ccccc2F)nc2ccccc21
619 s	CO[C@H]1C(=O)N(C2CCN(S(=O)(=O)c3cccs3)CC2)[C@H]1c1ccncc1
1130 s	CCOc1cccc(-c2noc(CCn3nc(-c4ccc(Cl)cc4)ccc3=O)n2)c1
993 s	COc1cc(-c2nc(C3CC(=O)N(c4ccc(Cl)cc4)C3)no2)cc(OC)c1OC (configuration not stated)
861 s	CC1Cc2ccccc2N1C(=O)c1ccc(=O)n(CCC(=O)NC2CCCCCC2)n1 (configuration not stated)
814 s	CCc1ccccc1NC(=O)C1(C)Oc2cccnc2N(C)C1=O (configuration not stated)
587 s	Cc1ccc2nc(NC3=NCN(Cc4cccnc4)CN3)nc(C)c2c1
903 s	C=CCNC(=O)c1cnn(-c2ccc(-c3nc(C(C)C)no3)cn2)c1C
740 s	COCCn1nnnc1C1CC2(CCOCC2)C(=O)N1Cc1cc(F)cc(F)c1 (configuration not stated)
878 s	Cc1ccc(Cl)cc1NC(=O)C(=O)c1cccn1C
931 s	COc1cc(CN2CC(F)(F)C[C@H]2c2nnc(C3CC3)o2)ccc1F
717 s	O=C(Cn1cc(-c2ccccc2)c2ncnc(N3CCOCC3)c21)NC1CCCC1
562 s	Cc1cnc(C2CN(C(=O)C(C)C)C2)n1CC1CC1
924 s	O=S(=O)(c1ccccc1)N1CCCC(c2nc(CCOCC3CC3)no2)C1 (configuration not stated)
630 s	CC(NC(=O)C1CCc2nc(N3CCOCC3)ncc2C1)c1ccco1 (configuration not stated)
881 s	CC(NC(=O)Cn1cc(C#N)c2ccccc21)c1ccc2c(c1)OCCCO2 (configuration not stated)
881 s	COC(=O)c1cc(S(=O)(=O)N2CCCC2C(=O)NC2CCCCCC2)cn1C (configuration not stated)
1010 s	Cc1noc(C)c1S(=O)(=O)N1CCC(c2noc(-c3ccccc3)n2)C1 (configuration not stated)
781 s	CC(=O)Nc1cc2c(cc1Sc1ccccc1Cl)n(C)c(=O)n2C
630 s	COc1cccc(CNC(=O)Cn2nc3c4cccc(C)c4ncn3c2=O)c1OC
